# From article PMC11783400, “Assessment of Potential Drug–Drug Interactions for Novel Oral Melanocortin‐1 Receptor Agonist Dersimelagon” (Pharmacology Research & Perspectives, 2025)
# Legend:
# MATE1 = biological target: T1, MATE1 (Homo sapiens, UniProt Q96FL8); assay: uptake inhibition in HEK293 cells expressing the transporter; assay type: cell-based
# T1 construct: gene SLC47A1; expressed in HEK293 cells
# T1 sequence (Q96FL8 1-570): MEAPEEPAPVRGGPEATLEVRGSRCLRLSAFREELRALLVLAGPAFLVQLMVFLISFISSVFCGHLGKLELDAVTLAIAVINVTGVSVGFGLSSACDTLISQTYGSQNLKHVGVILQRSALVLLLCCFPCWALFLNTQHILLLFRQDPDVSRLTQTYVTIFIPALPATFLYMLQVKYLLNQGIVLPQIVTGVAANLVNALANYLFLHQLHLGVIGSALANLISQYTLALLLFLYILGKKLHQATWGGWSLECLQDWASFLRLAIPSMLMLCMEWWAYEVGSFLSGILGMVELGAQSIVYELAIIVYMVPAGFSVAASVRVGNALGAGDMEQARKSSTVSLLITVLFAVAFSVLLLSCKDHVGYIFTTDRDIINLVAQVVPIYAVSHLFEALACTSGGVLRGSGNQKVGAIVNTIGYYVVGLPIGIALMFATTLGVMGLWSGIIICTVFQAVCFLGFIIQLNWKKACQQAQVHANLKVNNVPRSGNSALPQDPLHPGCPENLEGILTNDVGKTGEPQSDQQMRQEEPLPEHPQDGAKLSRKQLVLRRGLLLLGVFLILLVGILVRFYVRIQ
# Text: uptake inhibition in HEK293 cells expressing the transporter on MATE1
# CYP2C9 = biological target: T2, CYP2C9 (Homo sapiens, UniProt P11712); assay: CYP activity inhibition in human liver microsomes; assay type: biochemical
# T2 construct: native enzyme in human liver microsomes
# T2 sequence (P11712 whole entry): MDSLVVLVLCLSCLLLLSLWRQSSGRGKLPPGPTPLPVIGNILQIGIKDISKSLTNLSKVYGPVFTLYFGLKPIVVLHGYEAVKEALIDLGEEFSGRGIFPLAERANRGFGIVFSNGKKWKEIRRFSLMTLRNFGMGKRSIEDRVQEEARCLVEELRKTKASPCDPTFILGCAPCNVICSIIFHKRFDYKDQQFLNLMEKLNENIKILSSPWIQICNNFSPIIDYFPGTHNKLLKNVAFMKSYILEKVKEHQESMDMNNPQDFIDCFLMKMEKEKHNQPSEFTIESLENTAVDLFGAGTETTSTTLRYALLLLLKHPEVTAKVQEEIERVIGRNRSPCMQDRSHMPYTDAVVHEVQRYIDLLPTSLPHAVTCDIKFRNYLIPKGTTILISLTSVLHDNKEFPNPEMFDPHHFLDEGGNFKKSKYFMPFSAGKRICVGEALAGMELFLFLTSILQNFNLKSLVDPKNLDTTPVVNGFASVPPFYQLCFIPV
# Text: CYP activity inhibition in human liver microsomes on CYP2C9
compound,measurement,setting,value
COC[C@H]1CN(C(=O)[C@]2(F)CN(C3CCCC3)C[C@H]2c2ccc(OC)cc2)C[C@@H]1c1ccc(C(F)(F)F)cc1N1CCC(C(=O)O)CC1 [dersimelagon],IC50,MATE1,5.64 µM
same,IC50,CYP2C9; read-out: IC50 (μM) / Direct inhibition,9.16 µM
same,Ki,CYP2C9; read-out: Parameters / K i,5.13 µM
